Experimental data taken from US8455448B2, “Myostatin isoform” (Myostin Therapeutics Pty Ltd, priority 2004, dated 2013).

Columns and labels:
[1] = test system: human skeletal muscle myoblasts; test: Proliferation assay of human primary myoblasts (methylene blue); format: cell-based; details: 0-10 μg/ml, 96 h, FIG. 12B
Description: Human skeletal muscle myoblasts (Cambrex, Australia) were seeded in 96-well tissue culture plates (Nunc, Roskilde, Denmark) at a cell density of 2000 cells per well in 200 μl of Skeletal Muscle Basal Medium (Cambrex, Australia) supplemented with foetal bovine serum (FBS, 10% v/v, Cambrex, Australia), and incubated overnight at 37° C. with 5% CO2. The medium was replaced with Dulbecco's modified Eagle's medium (DMEM, Invitrogen, California) supplemented with 5% foetal bovine serum (FBS, Invitrogen, California), penicillin (1×10^5 IU/l, Sigma, St Louis, Mo., USA) and streptomycin (100 mg/l, Sigma) buffered with NaHCO3 containing phenol red (7.22 nmol/l) as a pH indicator with 0, 0.1, 1, 5 and 10 μg/ml rhMSV38 or roMSV47 protein in a semi-random arrangement of eight replicates (n=8) for each test medium. Plates were incubated at 37° C. with 5% CO2 for 96 hours, and then the medium was removed. The wells were washed with 200 μl of phosphate buffered saline (PBS, Oxoid, UK) buffer and fixed with 100 μl of 10% formaldehyde, 0.9% NaCl solution for at least one hour. The fixative was then removed and 100 μl of 1% methylene blue stain in 0.01 M borate buffer (pH 8.5) was added to each well and incubated for 30 min at room temperature. Excess stain was removed by four sequential washes in borate buffer. Methylene blue was eluted from the cells by the addition of 100 μl 1:1 (v/v) ethanol/0.1 HCl. The plates were gently shaken and the absorbance was measured at 655 nm using a microplate photometer (VersaMax, Molecular Devices, CA).
Human skeletal muscle myoblasts (Cambrex, Australia) were seeded in 96-well tissue culture plates (Nunc, Roskilde, Denmark) at a cell density of 2000 cells per well in 200 μl of Skeletal Muscle Basal Medium (Cambrex, Australia) supplemented with foetal bovine serum (FBS, 10% v/v, Cambrex, Australia), and incubated overnight at 37° C. with 5% CO2. The medium was replaced with Dulbecco's modified Eagle's medium (DMEM, Invitrogen, California) supplemented with 5% foetal bovine serum (FBS, Invitrogen, California), penicillin (1×10^5 IU/l, Sigma, St Louis, Mo., USA) and streptomycin (100 mg/l, Sigma) buffered with NaHCO3 containing phenol red (7.22 nmol/l) as a pH indicator with no added protein, 1.5 or 3.0 μg/ml recombinant bovine mature myostatin alone and with combination of 0.3, 1, 3, 10 molar ratio of rhMSV38 to myostatin, and the same amounts of rhMSV38 without myostatin in a semi-random arrangement of eight replicates (n=8) for each test medium. Plates were incubated at 37° C. with 5% CO2 for 48 hours, and then the medium was removed. […] The plates were gently shaken and the absorbance was measured at 655 nm using a microplate photometer (VersaMax, Molecular Devices, CA).

p21 = p21 protein in proliferating C2C12 myoblasts (Western blot); format: cell-based, murine; details: 0.1, 1, 10 μg/ml, 48 h, FIG. 6
Description: Thus, a decrease in p21 protein expression may indicate an increased cell proliferation rate. PCNA is a positive marker of cell proliferation. It is a subunit of DNA polymerase-delta during DNA replication in the cell cycle. Higher level of PCNA protein expression is associated with higher number of cells entering the DNA replication phase of the cell cycle.
C2C12 myoblasts were seeded in 10 cm diameter tissue culture plates (Nunc, Roskilde, Denmark) at a cell density of 3000 cells per cm^2 in 10 ml of Dulbecco's modified Eagle's medium (DMEM, Invitrogen, California) supplemented with foetal bovine serum (FBS, 10% v/v, Invitrogen), penicillin (1×105 IU/l, Sigma, St Louis, Mo., USA) and streptomycin (100 mg/l, Sigma) buffered with NaHCO3 containing phenol red (7.22 nmol/l) as a pH indicator, and incubated overnight at 37° C. with 5% CO2. The medium was replaced with the test medium: DMEM with 10% FBS supplemented with, 0.1, 1 or 10 μg/ml oMSV65 (n=3). The plates were then incubated at 37° C. with 5% CO2 for 48 hours. Cells were removed from the plate by trypsin treatment, washed with phosphate buffered saline (PBS, Oxoid, UK) and resuspended in 100 μl of lysis buffer (10 mM Hepes pH 7.9, 1.5 mM MgCl2, 10 mM KCl, 0.5% NP40, one Complete protease inhibitor tablet [Roche Diagnostics, USA] per 50 ml buffer). […] Band intensities were measured with a GS800 densitometer (BioRad, USA).

| Molecule | proliferation of human myoblasts [1] | p21 protein levels in proliferating C2C12 myoblasts (p21) |
| --- | --- | --- |
| roMSV47: 47 amino acid C-terminal mature ovine MSV fragment (SEQ ID NO: 50), recombinant from E. coli (IIFLEVYIQFCSILGEAVFKRQSKSIHFCQNFKIIACLCNTAAFRMK; Ovis aries) | able to stimulate human myoblast proliferation | – |
| roMSV65: 65 amino acid C-terminal peptide of ovine MSV (SEQ ID NO: 49) expressed as recombinant protein in E. coli (protein, Ovis aries) VHFYTPPYGQWIFHKERKIIFLEVYIQFCSILGEAVFKRQSKSIHFCQNFKIIACLCNTAAFRMK | – | dose-dependently decreases p21 protein levels |
